Assay results taken from ChEMBL document CHEMBL1142754, “Lp-PLA2 inhibitory activities of fatty acid glycerols isolated from Saururus chinensis roots” (Bioorg Med Chem Lett, 2005).
pIC50: −log10 of the molar value.

Experiment: Inhibitory concentration against lipoprotein-associated phospholipase A2 (Lp-PLA2) was determined in Pseudomonas fluorescens (DMS 115797)

Row | pIC50 | Compound
1 | 5.35 | CCCCC/C=C\C/C=C\CCCCCCCC(=O)OC[C@@H](O)CO [GLYCERYL MONOLINOLEATE]
2 | 4.28 | CCCCC/C=C\C/C=C\CCCCCCCC(=O)OC[C@H](O)CO
